Test results published in article PMC12001207 (The FEBS journal, 2025).
pEC50: −log10 of the molar value.

Assays:
Assay type in all cases: cell-based
[1] = target: T1, succinate receptor 1 (SUCNR1) (Homo sapiens, UniProt Q9BXA5); assay: cAMP inhibition assay; also DMR, IP1, Ca2+, arrestin-3 and miniG BRET
T1 sequence (Q9BXA5 1-334): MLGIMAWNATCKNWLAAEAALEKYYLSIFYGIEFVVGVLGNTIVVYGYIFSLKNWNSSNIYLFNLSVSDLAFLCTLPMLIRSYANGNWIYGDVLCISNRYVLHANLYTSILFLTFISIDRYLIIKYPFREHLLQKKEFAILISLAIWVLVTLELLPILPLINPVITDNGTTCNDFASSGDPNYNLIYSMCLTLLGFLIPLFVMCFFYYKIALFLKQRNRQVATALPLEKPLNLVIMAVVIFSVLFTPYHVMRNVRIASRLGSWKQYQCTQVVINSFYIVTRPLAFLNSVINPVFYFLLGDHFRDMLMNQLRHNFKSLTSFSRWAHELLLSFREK

[2] = target: T1, succinate receptor 1 (SUCNR1); assay: antagonism at […] of agonist-induced IP1, Ca2+, cAMP inhibition, DMR and miniG BRET
[3] = target: T1, succinate receptor 1 (SUCNR1); assay: dynamic mass redistribution, concentration-response

SMILES | dynamic mass redistribution, concentration-response [3] | further results
O=C(O)[C@H]1O[C@H]1C(=O)O [CES, cis-epoxysuccinate] |  | pEC50 [1]: ~6.95
CN1CCN(Cc2ccc(-c3cccc(C(=O)Nc4ccccc4CC(=O)O)c3)cc2)CC1 [NF56-EJ40, 2-(2-(4′-((4-methylpiperazin-1-yl)methyl)-[1,1′-biphenyl]-3-carboxamido)phenyl)acetic acid] |  | antagonism at 100 nM of agonist-induced IP1, Ca2+, cAMP inhibition, DMR and mini [2]: NF56-EJ40 also completely inhibited the agonist-induced SUCNR1-mediated IP1 formation and caused a significant shift of the cAMP inhibition curve
O=C(O)CCC(=O)O [SUC, succinate] |  | pEC50 [1]: ~6.19
C=C(CC(=O)O)C(=O)O [itaconate] | Metabolite SUCNR1 agonists (malate, oxaloacetate, methylmalonate, itaconate, malonate) showed concentration-dependent responses upon SUCNR1 stimulation | 
O=C(O)CC(O)C(=O)O (centres unmarked) [malate] | Metabolite SUCNR1 agonists (malate, oxaloacetate, methylmalonate, itaconate, malonate) showed concentration-dependent responses upon SUCNR1 stimulation | 
O=C(O)CC(=O)O [malonate] | Metabolite SUCNR1 agonists (malate, oxaloacetate, methylmalonate, itaconate, malonate) showed concentration-dependent responses upon SUCNR1 stimulation | 
CC(C(=O)O)C(=O)O [methylmalonate] | Metabolite SUCNR1 agonists (malate, oxaloacetate, methylmalonate, itaconate, malonate) showed concentration-dependent responses upon SUCNR1 stimulation | 
O=C(O)CC(=O)C(=O)O [oxaloacetate] | Metabolite SUCNR1 agonists (malate, oxaloacetate, methylmalonate, itaconate, malonate) showed concentration-dependent responses upon SUCNR1 stimulation | 
